In ChEMBL document CHEMBL5042501, “Gwanakosides A and B, 6-Deoxy-α-l-talopyranose-Bearing Aromatic Metabolites from a Streptomyces sp. and Coculture with Pandoraea sp” (J Nat Prod, 2022):
≈ marks a conversion by molar mass, not a printed value.

Assays:
Klebsiella pneumoniae = experiment: Antibacterial activity against Klebsiella pneumoniae ATCC 10031 assessed as inhibition of bacterial growth incubated for 24 hr by CLSI based broth microdilution method; assay type: functional
[1] = system: Mycobacterium tuberculosis; experiment: Antibacterial activity against Mycobacterium tuberculosis mc2 6230 assessed as bacterial growth inhibition incubated for 5 days by resazurin microtiter assay; assay type: functional; settings: mc2 6230, 120 h, time 5 day
A498 = experiment: Antiproliferative activity against human A498 cells assessed as reduction in cell viability incubated for 72 hr by SRB assay; assay type: functional, cell-based; settings: A498, 72 h
SNU-638 = experiment: Antiproliferative activity against human SNU-638 cells assessed as reduction in cell viability incubated for 72 hr by SRB assay; assay type: functional, cell-based; settings: SNU-638, 72 h
Staphylococcus aureus = experiment: Antibacterial activity against Staphylococcus aureus ATCC 25923 assessed as inhibition of bacterial growth incubated for 24 hr by CLSI based broth microdilution method; assay type: functional
Salmonella enterica = experiment: microbe, parasite or virus in culture; settings: ATCC 14028, 24 h
Description: Antibacterial activity against Salmonella enterica ATCC 14028 assessed as inhibition of bacterial growth incubated for 24 hr by CLSI based broth microdilution method

Enterococcus faecalis = experiment: Antibacterial activity against Enterococcus faecalis ATCC 19433 assessed as inhibition of bacterial growth incubated for 24 hr by CLSI based broth microdilution method; assay type: functional
Escherichia coli = experiment: Antibacterial activity against Escherichia coli ATCC 25922 assessed as inhibition of bacterial growth incubated for 24 hr by CLSI based broth microdilution method; assay type: functional
HCT-116 = experiment: Antiproliferative activity against human HCT116 cells assessed as reduction in cell viability incubated for 72 hr by SRB assay; assay type: functional, cell-based; settings: HCT-116, 72 h
MDA-MB-231 = experiment: Antiproliferative activity against human MDA-MB-231 cells assessed as reduction in cell viability incubated for 72 hr by SRB assay; assay type: functional, cell-based; settings: MDA-MB-231, 72 h
Enterococcus faecium = experiment: Antibacterial activity against Enterococcus faecium ATCC 19434 assessed as inhibition of bacterial growth incubated for 24 hr by CLSI based broth microdilution method; assay type: functional
SK-HEP1 = experiment: Antiproliferative activity against human SK-HEP1 cells assessed as reduction in cell viability incubated for 72 hr by SRB assay; assay type: functional, cell-based; settings: SK-HEP1, 72 h
Trichophyton rubrum = experiment: Antifungal activity against Trichophyton rubrum NBRC 9185 assessed as fungal growth inhibition incubated for 96 hrs; assay type: functional
Aspergillus fumigatus = experiment: Antifungal activity against Aspergillus fumigatus HIC 6094 assessed as fungal growth inhibition incubated for 48 hrs; assay type: functional
[2] = system: Trichophyton mentagrophytes; experiment: Antifungal activity against Trichophyton mentagrophytes IFM 40996 assessed as fungal growth inhibition incubated for 96 hrs; assay type: functional
[3] = Inhibition of Staphylococcus aureus ATCC6538p Sortase A incubated for 1 hr by fluorescence spectrophotometric analysis
Candida albicans = experiment: Antifungal activity against Candida albicans ATCC 10231 assessed as fungal growth inhibition incubated for 24 hrs; assay type: functional

| SMILES | MIC (Klebsiella pneumoniae) [µg/mL] | MIC50 [1] [µg/mL] | IC50 (A498) [µM] | IC50 (SNU-638) [µM] | MIC (Staphylococcus aureus) [µg/mL] | MIC (Salmonella enterica) [µg/mL] | MIC (Enterococcus faecalis) [µg/mL] | MIC (Escherichia coli) [µg/mL] | IC50 (HCT-116) [µM] | IC50 (MDA-MB-231) [µM] | MIC (Enterococcus faecium) [µg/mL] | IC50 (SK-HEP1) [µM] | MIC [1] [µg/mL] | MIC (Trichophyton rubrum) [µg/mL] | MIC (Aspergillus fumigatus) [µg/mL] | MIC [2] [µg/mL] | IC50 [3] [µg/mL] | MIC (Candida albicans) [µg/mL] |
| --- | --- | --- | --- | --- | --- | --- | --- | --- | --- | --- | --- | --- | --- | --- | --- | --- | --- | --- |
| CN(C)[C@@H]1C(O)=C(C(N)=O)C(=O)[C@@]2(O)C(O)=C3C(=O)c4c(O)cccc4[C@@](C)(O)[C@H]3C[C@@H]12 [TETRACYCLINE] | 0.25 (≈ 0.563 µM) |  |  |  |  |  |  |  |  |  |  |  |  |  |  |  |  |  |
| COc1nc2ccc(Br)cc2cc1[C@@H](c1ccccc1)[C@@](O)(CCN(C)C)c1cccc2ccccc12 [BEDAQUILINE] |  | 0.5 (≈ 0.9 µM) |  |  |  |  |  |  |  |  |  |  |  |  |  |  |  |  |
| Cc1cc2c(c(O[C@@H]3O[C@@H](C)[C@@H](O)[C@@H](O)[C@H]3O)c1)-c1cc3c(c(O)c1[C@@H](O)C2)C(=O)c1c(O)cc(O)cc1C3=O | > 128 |  | > 20 | > 20 | > 128 | > 128 | > 128 | > 128 | > 20 | > 20 | 128 (≈ 233 µM) | > 20 |  |  |  |  |  |  |
| CC1(C)S[C@@H]2[C@H](NC(=O)[C@H](N)c3ccccc3)C(=O)N2[C@H]1C(=O)O [AMPICILLIN] |  |  |  |  | 0.13 (≈ 0.372 µM) | 0.13 (≈ 0.372 µM) | 0.5 (≈ 1.43 µM) | 8 (≈ 22.9 µM) |  |  | 0.25 (≈ 0.715 µM) |  |  |  |  |  |  |  |
| COc1cc([C@@H]2c3cc4c(cc3[C@@H](O[C@@H]3O[C@@H]5CO[C@@H](C)O[C@H]5[C@H](O)[C@H]3O)[C@H]3COC(=O)[C@H]23)OCO4)cc(OC)c1O [ETOPOSIDE] |  |  | 0.23 | 0.4 |  |  |  |  | 0.25 | 2.8 |  | 0.22 |  |  |  |  |  |  |
| Cc1c(Cl)c(O[C@@H]2O[C@@H](C)[C@@H](O)[C@@H](O)[C@H]2O)c2cc(O[C@@H]3O[C@@H](C)[C@@H](O)[C@@H](O)[C@H]3O)ccc2c1Cl | 32 (≈ 59.8 µM) |  | 18.8 | 8.6 | 8 (≈ 14.9 µM) | 16 (≈ 29.9 µM) | 16 (≈ 29.9 µM) | > 128 | 5.6 | 19.4 | 16 (≈ 29.9 µM) | 14.7 | 15 (≈ 28 µM) | > 128 | > 128 | > 128 | 63.3 (≈ 118 µM) | > 128 |
